# Assay results: US20260101892A1, “METHOD TO INHIBIT PROLIFERATION OF A PHYTOPATHOGEN ON PLANTS AND COMPOSITIONS USED FOR THIS PURPOSE” (CYSBIO APS, priority 2022, published 2026)
# Where two headings read alike, the source gives them in different places.
# Key:
# [1] = tested on: Colletotrichum lindemuthianum; conditions: Bean anthracnose; crop Bean; Stanley 2002; cited from earlier work
# [2] = tested on: Septoria tritici; test: Septoria leaf blotch; type: in vivo
# [3] = tested on: tilletia caries; test: Seed dressing against common bunt of wheat
# Method: (§2) To investigate if zosteric acid can be applied as a seed dressing agent to prevent different seed borne fungal infections, the ability of zosteric acid to prevent infection of wheat and barley with the common bunt of wheat caused by tilletia caries and barley stribe, caused by pyronophora graminea was tested.
# (§3) To investigate if zosteric acid can be applied as a seed dressing agent to prevent different seed borne fungal infections, the ability of zosteric acid to prevent infection of wheat and barley with the common bunt of wheat caused by tilletia caries and barley stribe, caused by pyronophora graminea) was tested.
# [4] = tested on: strawberries (Fragaria sp.); test: Phytotoxicity evaluation in the strawberry powdery mildew trial; type: in vivo; conditions: at concentrations that control disease
# [5] = tested on: downy mildew in grapevine (plasmopara viticola); test: Downy mildew in grapevine, controlled environment trial, foliar spray
# [6] = tested on: Cercospora beticola; test: Cercospora leaf spot disease in sugarbeet; type: in vivo; conditions: crop Beta vulgaris vulg. altissima / sugarbeet
# [7] = tested on: Alternaria alternata; test: Post-harvest preservation of capsicums; type: in vivo; conditions: capsicums sprayed twice, 10° C., followed 25 days, triplicate
# Method: (§1) To investigate if zosteric acid and/or coumaric acid can protect fruit and vegetables against post-harvest infection with different fungi, zosteric and coumaric acids fungicidal effect was tested in capsicums and lemons infected with Alternaria alternata and Penicillium digitatum, respectively. The tests were performed by acquiring the relevant fruit and vegetables from the local supermarket. Both fruit and vegetables were bought as organic produce to ensure a minimum of pesticides had already been applied. […] Each application treatment was performed in triplicate on three separate pieces of produce. After treatment, the produce was allowed to dry in a sterile laminar flow cabinet followed by a second round of application and drying. The produce was then inoculated with the relevant fungal spores using a grafting stick. […] The inoculated produce was subsequently placed in […] plastic bags to prevent contamination with other organisms and to prevent the produce from drying out due to air circulation in the incubator. The wrapped capsicums and lemons were placed at 10° C. and the fungal growth followed by measuring the diameter of the growth from the point of inoculation for 25 days.
# [8] = tested on: Ustilago nuda; test: Loose smut of barley; type: in vivo; conditions: crop Barley
# [9] = tested on: Puccinia striiformis; test: Yellow rust in wheat, greenhouse trial, contact fungicide; conditions: crop Wheat
# Method: A greenhouse trial was conducted to investigate if zosteric acid could be applied as a contact fungicide to control yellow rust in wheat. Wheat was sowed in one-liter pots, with five replicates per treatment. 14 days after sowing, plants were sprayed with 150 L/ha of 10% zosteric acid with 0.1% Tween. For reference, an untreated control, a treatment with 0.1% Tween, and a treatment with a currently used standard fungicide treatment for yellow rust was also included in the test. One day after spraying of the plants, they were inoculated with Puccinia striiformis which is the causative agent of yellow rust. Plants were assessed for attack with yellow rust 13, 19 and 21 days after infection with yellow rust.
# [10] = tested on: Penicillium digitatum; test: Post-harvest preservation of lemons; type: in vivo
# Method: as §1
# [11] = tested on: Leptosphaeria maculans; test: Blackleg disease in winter rape; type: in vivo; conditions: crop Brassica napus / winter rape
# [12] = tested on: Blumeria graminis f. sp. tritici; test: Powdery mildew in wheat; type: in vivo; conditions: crop Wheat
# [13] = tested on: late potato blight (Phytophtora infestans); type: in vivo, Phytophthora infestans; conditions: for reduction of pest severity: 5% zosteric acid and 0.3 L/ha BREAK THRU, vs untreated control
# [14] = tested on: Magnaporthe grisea; conditions: Rice blast; crop Rice; Stanley 2002; cited from earlier work
# [15] = tested on: pyronophora graminea; test: Seed dressing against barley stripe
# Method: as §2, §3
# [16] = tested on: Penicillium citrinum; conditions: Mold on citrus fruits; N/A (In vitro); Villa et al 2010; cited from earlier work
# [17] = tested on: powdery mildew (Podosphaera aphanis); test: Powdery mildew in strawberries, controlled environment trial; conditions: crop Strawberries
# Method: The efficacy was evaluated as % area of leaves that were infected with disease based on evaluation of 50 leaves from each plant. The evaluation was performed 30 days after the first treatment and 10 days after the last treatment.
# Five different treatments were applied; 1) an untreated control, 2) zosteric acid at 3%, 3) zosteric acid at 6%, 4) zosteric acid at 9%, 5) Karma at 3 kg/ha. […] Four treatment applications were performed at day 0, 7, 14, and 21 respectively. Prior to each application the infection and phytotoxicity of the plants were evaluated and scored.
# [18] = tested on: potatoes (Solanum tuberosum, variety Venezia); test: Phytotoxicity assessment in the potato blight climate chamber test; type: in vivo; conditions: throughout the trials (0.1%, 1%, 5% zosteric acid)
# Method: The application was conducted with a Research Track Sprayer and three different concentrations of zosteric acid (0.1%, 1%, and 5%) were sprayed one day before pathogen inoculation and two different concentrations of zosteric acid (1% and 5%) were sprayed after inoculation as soon as the infection got visible. Plants were assessed for phytotoxicity and pest severity 0, 4, and 7 days after the curative application.
# [19] = tested on: European grapes (Vitis vinifera); test: Phytotoxicity evaluation in the grapevine downy mildew trial
# [20] = tested on: Aspergillus niger; conditions: Common mold; N/A (In vitro); Villa et al 2010; cited from earlier work
smiles,measurement,setting,value
O=C(O)/C=C/c1ccc(OS(=O)(=O)O)cc1 [zosteric acid],zosteric acid effective (Yes/No),[1],Yes
same,zosteric acid effective (Yes/No),[2],not effective and No
same,zosteric acid effective (Yes/No),"[3]; Common bunt of wheat, crop Wheat",good efficacy and Yes
same,effect in combination with Redigo Pro,"[3]; protection against common bunt of wheat, seed dressing",strong synergistic effect
same,reduction of percentage of infected plant ears compared to untreated control,[3]; wheat seeds treated with 0.1% zosteric acid,more than 2 fold
same,reduction of percentage of infected plant ears compared to untreated control,[3]; wheat seeds treated with 1% zosteric acid,more than 2 fold
same,phytotoxicity,[4],no phytotoxicity
same,zosteric acid effective (Yes/No),"[5]; Downy mildew in wine, crop Vitis vinifera / European grape",highly effective and Yes
same,efficacy compared with positive control Funguran Progress (copper),[5]; Example 9 trial,comparable to the positive control Funguran Progress
same,dose response of disease control,"[5]; increasing doses of zosteric acid, scored 17 days after application",clear dose response
same,zosteric acid effective (Yes/No),[6],not effective and No
same,time after inoculation until A. alternata growth was displayed,[7],19 days
same,zosteric acid effective (Yes/No),[8],no efficacy and No
same,zosteric acid effective (Yes/No),[9],effective and Yes
same,time after inoculation until P. digitatum growth was observed,"[10]; lemons sprayed twice, 10° C., followed 25 days, triplicate",19 days
same,replicates with P. digitatum growth at end of test period,"[10]; lemons, day 25, three replicates",only a single replicate
same,zosteric acid effective (Yes/No),[11],not effective and No
same,zosteric acid effective (Yes/No),[12],not effective and No
same,reduction of pest severity,[13]; 0 days from the curative treatment,7.8%
same,reduction of pest severity,[13]; 4 days from the curative treatment,7.3%
same,reduction of pest severity,[13]; 7 days from the curative treatment,6.6%
same,zosteric acid effective (Yes/No),"[13]; Potato blight, crop Solanum tuberosum / potato",highly effective and Yes
same,zosteric acid effective (Yes/No),[14],Yes
same,zosteric acid effective (Yes/No),"[15]; Barley stripe, crop Barley",Yes
same,reduction of percentage of infected plant ears compared to untreated control,[15]; barley seeds treated with 0.1% zosteric acid,more than 2 fold
same,reduction of percentage of infected plant ears compared to untreated control,[15]; barley seeds treated with 1% zosteric acid,more than 2 fold
same,zosteric acid effective (Yes/No),[16],Yes
same,zosteric acid effective (Yes/No),[17],Yes
same,phytotoxic effects,[18],No phytotoxic effects were observed
same,phytotoxicity,"[19]; 1% zosteric acid, scored 13 days after application",< 0.5%
same,phytotoxicity,"[19]; 5% treatment, Example 9 trial",7%
same,phytotoxic effects,"[19]; at the effective concentration, scored 13 days after application",does not have significant phytotoxic effects
same,phytotoxicity,"[19]; high concentrations (>2%), scored 13 days after application",start to be phytotoxic
same,zosteric acid effective (Yes/No),[20],Yes
